From PubChem BioAssay (NCI)
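Method: 48-hour compound exposure of cells in 96-well plates, five concentrations, linear interpolation of endpoints. GI50 is the concentration that inhibits growth by half. Definition used: TGI = concentration required for complete inhibition of growth.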

Legend:
Assay in all cases: NCI tumour cell line growth inhibition, 48 h
COLO 205 colon = system: COLO 205 colon
HOP-62 NSCLC = system: HOP-62 NSCLC
IGROV1 ovarian = system: IGROV1 ovarian
KM12 colon = system: KM12 colon
LOX IMVI melanoma = system: LOX IMVI melanoma
SK-MEL-5 melanoma = system: SK-MEL-5 melanoma
SNB-75 CNS = system: SNB-75 CNS
UACC-257 melanoma = system: UACC-257 melanoma
UACC-62 melanoma = system: UACC-62 melanoma
DU-145 prostate = system: DU-145 prostate

## C[C@]12C/C(=C/O)C(=O)C(O)=C1CC[C@@H]1C2CC[C@@]2(C)C1CC[C@@H]2O (stereo partly drawn)
COLO 205 colon
  TGI: 44.5 µM
HOP-62 NSCLC
  TGI: > 100 µM
IGROV1 ovarian
  TGI: 46 µM
KM12 colon
  TGI: 76.9 µM
LOX IMVI melanoma
  TGI: 30.9 µM
SK-MEL-5 melanoma
  TGI: 42.9 µM
SNB-75 CNS
  TGI: 34.9 µM
UACC-257 melanoma
  TGI: 62 µM
UACC-62 melanoma
  TGI: 46.7 µM

## N#Cc1c(-c2ccco2)cc(-c2ccccc2)[nH]c1=O
COLO 205 colon
  TGI: > 100 µM
HOP-62 NSCLC
  TGI: > 100 µM
IGROV1 ovarian
  TGI: > 100 µM
KM12 colon
  TGI: > 100 µM
LOX IMVI melanoma
  TGI: > 100 µM
SK-MEL-5 melanoma
  TGI: > 100 µM
SNB-75 CNS
  TGI: > 100 µM
UACC-257 melanoma
  TGI: > 100 µM
UACC-62 melanoma
  TGI: > 100 µM

## Cc1cccc(N(CC(=O)O)S(=O)(=O)c2ccccc2)c1
COLO 205 colon
  TGI: > 100 µM
IGROV1 ovarian
  TGI: > 100 µM
KM12 colon
  TGI: > 100 µM
LOX IMVI melanoma
  TGI: > 100 µM
SK-MEL-5 melanoma
  TGI: > 100 µM
SNB-75 CNS
  TGI: > 100 µM
UACC-257 melanoma
  TGI: > 100 µM
UACC-62 melanoma
  TGI: > 100 µM

## CC(=O)n1c(=O)c2cc3c(=O)n(-c4cccc(C#N)c4)c(=O)c3cc2c1=O
COLO 205 colon
  TGI: > 100 µM
HOP-62 NSCLC
  TGI: > 100 µM
IGROV1 ovarian
  TGI: > 100 µM
KM12 colon
  TGI: > 100 µM
LOX IMVI melanoma
  TGI: > 100 µM
SK-MEL-5 melanoma
  TGI: > 100 µM
SNB-75 CNS
  TGI: 54.6 µM
UACC-257 melanoma
  TGI: > 100 µM
UACC-62 melanoma
  TGI: > 100 µM

## CC1(C)CC(=O)C(CC2C(=O)c3ccccc3C2=O)C(=O)C1
COLO 205 colon
  TGI: > 100 µM
HOP-62 NSCLC
  TGI: > 100 µM
IGROV1 ovarian
  TGI: > 100 µM
KM12 colon
  TGI: > 100 µM
LOX IMVI melanoma
  TGI: > 100 µM
SK-MEL-5 melanoma
  TGI: > 100 µM
SNB-75 CNS
  TGI: > 100 µM
UACC-257 melanoma
  TGI: > 100 µM
UACC-62 melanoma
  TGI: > 100 µM

## CN1c2ccccc2SC2C(c3ccccc3)=NOC21 (stereo not drawn)
COLO 205 colon
  TGI: > 100 µM
DU-145 prostate
  TGI: > 100 µM
HOP-62 NSCLC
  TGI: > 100 µM
IGROV1 ovarian
  TGI: > 100 µM
KM12 colon
  TGI: > 100 µM
SNB-75 CNS
  TGI: 56.6 µM
UACC-62 melanoma
  TGI: > 100 µM

## c1ccc(-c2nc(N3CCCNCC3)c3nc(-c4ccccc4)oc3n2)cc1
COLO 205 colon
  GI50: 1.6 µM
  TGI: 3.38 µM
DU-145 prostate
  GI50: 1.8 µM
  TGI: 3.26 µM
HOP-62 NSCLC
  GI50: 1.58 µM
  TGI: 3.23 µM
IGROV1 ovarian
  GI50: 1.59 µM
  TGI: 3.13 µM
KM12 colon
  GI50: 1.83 µM
  TGI: 3.38 µM
SK-MEL-5 melanoma
  GI50: 1.77 µM
  TGI: 3.18 µM
UACC-257 melanoma
  GI50: 1.8 µM
  TGI: 3.43 µM
UACC-62 melanoma
  GI50: 1.81 µM
  TGI: 3.34 µM

## O=c1[nH]c2cc([N+](=O)[O-])ccc2nc1/C(=N\Nc1ccccc1)C(O)c1ccc2c(c1)OCO2 (stereo not drawn)
COLO 205 colon
  TGI: > 100 µM
HOP-62 NSCLC
  TGI: > 100 µM
IGROV1 ovarian
  TGI: > 100 µM
KM12 colon
  TGI: > 100 µM
LOX IMVI melanoma
  TGI: > 100 µM
SK-MEL-5 melanoma
  TGI: > 100 µM
SNB-75 CNS
  TGI: > 100 µM
UACC-257 melanoma
  TGI: > 100 µM
UACC-62 melanoma
  TGI: > 100 µM

## Cc1cccc(C)c1N1C(=O)C(=O)C(c2nc3ccccc3s2)C(=Nc2cccc3c(=O)[nH][nH]c(=O)c23)C1=O (stereo not drawn)
COLO 205 colon
  TGI: > 100 µM
HOP-62 NSCLC
  TGI: > 100 µM
IGROV1 ovarian
  TGI: > 100 µM
KM12 colon
  TGI: > 100 µM
LOX IMVI melanoma
  TGI: > 100 µM
SK-MEL-5 melanoma
  TGI: > 100 µM
SNB-75 CNS
  TGI: > 100 µM
UACC-257 melanoma
  TGI: > 100 µM
UACC-62 melanoma
  TGI: > 100 µM

## CC(C)[O-].CC(C)[O-].O=c1cccccc1[O-].O=c1cccccc1[O-].[Ti+4]
COLO 205 colon
  TGI: > 100 µM
HOP-62 NSCLC
  GI50: > 100 µM
  TGI: > 100 µM
IGROV1 ovarian
  TGI: > 100 µM
KM12 colon
  TGI: 69.8 µM
LOX IMVI melanoma
  TGI: > 100 µM
SK-MEL-5 melanoma
  TGI: 69.8 µM
SNB-75 CNS
  TGI: > 100 µM
UACC-257 melanoma
  TGI: > 100 µM
UACC-62 melanoma
  TGI: > 100 µM

## Cc1cccc(N=Nc2ccc(N=Nc3c(O)ccc4ccccc34)cc2C)c1
COLO 205 colon
  TGI: > 100 µM
HOP-62 NSCLC
  TGI: 89.6 µM
IGROV1 ovarian
  TGI: > 100 µM
KM12 colon
  TGI: > 100 µM
SK-MEL-5 melanoma
  TGI: > 100 µM
SNB-75 CNS
  TGI: 37.8 µM
UACC-257 melanoma
  TGI: > 100 µM
UACC-62 melanoma
  TGI: > 100 µM
